Data on 16 compounds can be found in patent US20140378451A1, “Cannabinoid-2-Receptor Agonists” (ISIS INNOVATION LIMITED, priority 2011, published 2014).

The target in one test is T1, hCNR2 (CB2R) (Homo sapiens, UniProt P34972).
T1 construct: host or cells: CHO-K1 (purchased recombinant cell line)
Description: DiscoveRx cAMP Hunter Express GPCR assay (hCNR2 CHO-K1 cells). Type of test: cell-based. Particulars: for IC50: cAMP Hunter eXpress, hCNR2 CHO-K1 cells, read-out: Assay 2 IC50. The procedure:
(§1) Compounds were evaluated for their CB2R agonist potency in the following assays:
Assay 2—DiscoveRx cAMP Hunter Express GPCR Assay
The cAMP Hunter eXpress GPCR assay kit and cells used are from DiscoveRx Corporation (95-0040E2) using the manufacturer's protocol without the optional IBMX step. […] Briefly, hCNR2 CHO-K1 cells were plated in the provided medium (50 ul per well) in half-area 96-well plates (Corning 3885) and placed in an incubator 37° C. 5% CO2 overnight. Next day, the medium was aspirated and replaced with ‘antibody solution’ (22.5 ul) (provided concentrated, diluted 1 in 3 with ‘assay buffer’ provided). The freshly made compounds (at a ×4 final concentration) or solvent alone (1.2% DMSO) were added to the wells and incubated for 30 minutes in a 37° C. incubator 5% CO2. A mixture of lysis solution and two substrates (provided with the DiscoveRx kit) was added to the wells and incubated in the dark for one hour at room temperature. A detection reagent (provided) was then added to the wells and incubated in the dark for 3 hours at room temperature. The luminescence was then read with a Perkin-Elmer luminometer.

The target in a further test is T2, hCB2R (Homo sapiens, UniProt P34972).
T2 construct: unnamed tag of the plasmid; expressed in transfected cells
Description: cAMP assay on hCB2R clone 3D8.3 (transfected CHO-K1 cells). Type of test: cell-based. Particulars: for IC50: cAMP, hCNR2 CHO-K1 3D8.3 clone, read-out: Assay 1 IC50. The procedure:
as §1
Assay 1—cAMP Assay on hCB2R Clone 3D8.3:
Chinese hamster ovary cells (CHO)-K1 were transfected with hCB2R plasmid using Genejuice (Merck). After 48 h the cells were transferred into flasks in the presence of the antibiotic G418 and expanded (with continuous replenishment of the antibiotic). Two single-cell cloning rounds were then performed, followed by verification of the presence of the tag of the plasmid and confirming the receptor was functional in cAMP studies. For the screening of compounds: Briefly, hCNR2 CHO-K1 (3D8.3 clone) cells were plated in Optimem+1% FCS (30000 cells, 100 ul per well) in half-area 96-well plates (Corning 3885) and placed in an incubator 37° C. 5% CO2 overnight. Next day, the medium was aspirated and replaced with ‘antibody solution’ (22.5 ul) (provided concentrated, diluted 1 in 3 with ‘assay buffer’ provided). The freshly made compounds (at a ×4 final concentration) or solvent alone (1.2% DMSO) were added to the wells and incubated for 30 minutes in a 37° C. incubator 5% CO2. A mixture of: Lysis solution (38%), substrates (Emerald-II™ (10%) and Galacton-Star® (2%)) and enzyme donor-labeled cAMP (50%) was added to the wells and incubated in the dark for one hour at room temperature. 30 μl of detection reagent (enzyme acceptor, provided) was then added to the wells and incubated in the dark for 3 hours at room temperature. The luminescence was then read with a Perkin-Elmer luminometer.
Background: cAMP levels reflect the balance of adenylyl cyclase and phosphodiesterase activity.

T1 sequence (P34972 whole entry): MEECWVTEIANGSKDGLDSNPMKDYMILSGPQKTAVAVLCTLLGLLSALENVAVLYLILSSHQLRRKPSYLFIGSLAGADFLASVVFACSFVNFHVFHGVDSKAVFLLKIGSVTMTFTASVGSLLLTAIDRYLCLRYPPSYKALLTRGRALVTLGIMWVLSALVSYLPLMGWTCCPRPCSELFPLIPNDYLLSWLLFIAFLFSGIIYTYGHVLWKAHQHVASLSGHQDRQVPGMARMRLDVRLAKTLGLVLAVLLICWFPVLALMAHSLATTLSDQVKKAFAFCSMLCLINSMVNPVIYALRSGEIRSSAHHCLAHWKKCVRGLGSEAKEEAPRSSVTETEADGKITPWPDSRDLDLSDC
T2 sequence (P34972 whole entry): as above

On to `CN(C)c1ccc(C(=O)n2c3ccccc3c3nnc(SCc4ccccc4C#N)nc32)cc1` [Example 16], for which the “Assay 2 decrease at 1 and 3 μM” value on hCNR2 (CB2R) (at 1 and 3 μM) is 20% decrease at 1 and 3 μM. Besides, on hCB2R (at 3 μM), the “Assay 1 activity at 3 μM” value is around 40% activity at 3 μM.
Broadly, the IC50 is the concentration needed to halve the response being measured. In the case of `O=[N+]([O-])c1ccccc1CSc1nnc2c(n1)[nH]c1ccccc12` [Example 1, 3-((2′-nitrobenzyl)thio)-5H-[1,2,4]triazino[5,6-b]indole], the IC50 is 33 nM on hCNR2 (CB2R) and 129 nM on hCB2R.
The matching figures for `N#Cc1ccccc1CSc1nnc2c(n1)[nH]c1cccc(Br)c12` [Example 8, 2′-(((9-Bromo-5H-[1,2,4]triazino[5,6-b]indol-3-yl)thio)methyl)benzonitrile]: 39 nM and 228 nM.
For `N#Cc1ccccc1CSc1nnc2c3ccccc3n(C(=O)C3CCCC3)c2n1` [Example 22, 2′-(((5-(Cyclopentanecarbonyl)-5H-[1,2,4]triazino[5,6-b]indol-3-yl)thio)methyl)benzonitrile] the same measures were 49 nM and 14 nM.
In the case of `O=[N+]([O-])c1ccc(CSc2nnc3c(n2)[nH]c2ccccc23)c([N+](=O)[O-])c1` [Example 11, 3-((2′,4′-Dinitrobenzyl)thio)-5H-[1,2,4]triazino[5,6-b]indole], the IC50 on hCNR2 (CB2R) was found to be 576 nM; at hCB2R, 3900 nM.
The matching figures for `N#Cc1ccccc1CSc1nnc2c3ccccc3n(Cc3ccccc3)c2n1` [Example 3, 2′-(((5-Benzyl-5H-[1,2,4]triazino[5,6-b]indol-3-yl)thio)methyl)benzonitrile]: 214 nM and 96 nM.
On to `O=[N+]([O-])c1ccccc1CSc1nnc2c3ccccc3n(Cc3ccc(Cl)cc3)c2n1` [Example 6, 5-(4″-Chlorobenzyl)-3-((2′-nitrobenzyl)thio)-5H-[1,2,4]triazino[5,6-b]indole], for which the results for the IC50 on hCNR2 (CB2R) and on hCB2R were 109 nM and 631 nM, respectively.
In the case of `O=[N+]([O-])c1ccccc1CSc1nnc2c3ccccc3n(Cc3ccccc3F)c2n1` [Example 13], the IC50 at hCNR2 (CB2R) and on hCB2R was 201 nM throughout.
For the compound `N#Cc1ccccc1CSc1nnc2c3ccccc3n(Cc3ccccc3[N+](=O)[O-])c2n1` [Example 10, 2′-(((5-(2″-Nitrobenzyl)-5H-[1,2,4]triazino[5,6-b]indol-3-yl)thio)methyl)benzonitrile], the IC50 turned out to be 53 nM at hCNR2 (CB2R) and 355 nM at hCB2R.
The matching figures for `N#Cc1ccccc1CSc1nnc2c3ccccc3n(C(=O)c3cccc(C(F)(F)F)c3)c2n1` [Example 19]: 27 nM and 57 nM.
The matching figures for `N#Cc1ccccc1CSc1nnc2c3ccccc3n(C(=O)c3ccccc3)c2n1` [Example 25]: 113 nM and 38 nM.
Take `N#Cc1ccccc1CSc1nnc2c3ccccc3n(C(=O)C3CCCCC3)c2n1` [Example 18, 2′-(((5-(Cyclohexanecarbonyl)-5H-[1,2,4]triazino[5,6-b]indol-3-yl)thio)methyl)benzonitrile]: the IC50 was 32 nM on hCNR2 (CB2R) and 12 nM on hCB2R.
For `O=[N+]([O-])c1ccccc1CSc1nnc2c(n1)[nH]c1cccc(Br)c12` [Example 9, 9-Bromo-3-((2′-nitrobenzyl)thio)-5H-[1,2,4]triazino[5,6-b]indole] the same measures were 37 nM and 280 nM.
`COC(=O)CCCC(=O)n1c2ccccc2c2nnc(SCc3ccccc3C#N)nc21` [Example 27, methyl 5″-(3-((2′-cyanobenzyl)thio)-5H-[1,2,4]triazino[5,6-b]indol-5-yl)-5″-oxopentanoate]: the IC50 at hCNR2 (CB2R) is 42 nM; at hCB2R, 45 nM.
For `N#Cc1ccccc1CSc1nnc2c3ccccc3n(C(=O)c3ccc(OC(F)(F)F)cc3)c2n1` [Example 21, 2′-(((5-(4″-(Trifluoromethoxy)benzoyl)-5H-[1,2,4]triazino[5,6-b]indol-3-yl)thio)methyl)benzonitrile] the same measures were 73 nM and 111 nM.
The matching figures for `O=[N+]([O-])c1cccc(F)c1CSc1nnc2c(n1)[nH]c1ccccc12` [Example 12, 3-((2′-Fluoro-6′-nitrobenzyl)thio)-5H-[1,2,4]triazino[5,6-b]indole]: 539 nM and 1900 nM.
